Patent US20240350510A1, “METHODS AND COMPOSITIONS FOR REDUCING TOLERANCE TO OPIOID […] IBOGAINE AND DERIVATIVES THEREOF” (DemeRx, Inc., priority 2014, published 2024)

Assay: Effect of ibogaine on QT interval in treated patients
Format: in vivo, human
Settings: stated in words only, no values
Excerpt: A prolonged QT interval is a marker of potential Torsades de Pointes, a serious arrhythmia that can result in death. For reasons that are not apparent, this prolongation increases in opioid addicted patients as compared to healthy individuals. […] It is expected that other compounds that share ibogaine's core structure will have a similar prolongation effect on QT interval. See, U.S. Provisional Patent Application No. 61/945,746 filed Feb. 27, 2014 entitled METHOD FOR ACUTE AND LONG-TERM TREATMENT OF DRUG ADDICTION, which application is incorporated by reference in its entirety.
The effect of ibogaine, ibogaine derivative, or a pharmaceutically acceptable salt and/or solvate thereof on QT interval is evaluated in substance-dependent participants in a randomized, placebo-controlled, double-blind trial. Patients are administered 60 mg or 120 mg of the compound and QT interval is measured.

## CCC1CC2CC3c4[nH]c5ccc(OC)cc5c4CCN(C2)C13 (stereo not shown) [ibogaine]
  prolongation of the treated patient's QT interval: dose dependent prolongation
